Broadly, the IC50 is the concentration that gives 50% inhibition.

Bounds are passed on as bounds.

This experiment deals with YAP-TEAD interaction. Kind of experiment: SK-HEP-1 reporter assay (8xTEAD responsive elements driving NanoLuc luciferase). The following applies: Homo sapiens, SK-HEP1, SK-HEP-1 reporter assay. It counts as cell-based. The procedure: To identify inhibitors of YAP-TEAD interaction, 8×TEAD responsive elements driving the NanoLuc® luciferase gene were stably integrated into SK-HEP-1 cells (ECACC #: 91091816).
For the assay, cells were treated in duplicates with the test compounds in a 10-point dose, with the top concentration starting at 30 μM (final concentration in assay). After a 24 hour incubation at 37° C., 95% rH, and 5% CO2, a luciferase substrate/lysis reagent mix (NanoGlo™, Promega) was added to the cells, allowing the quantification of cellular luciferase activity.
Cell Media: The cells were cultured in the following media: MEM, +10% FBS, +1× GlutaMAX, +1 mM Sodium-Pyruvate, +100 μM Non-essential amino acids, +0.1 mg/ml Hygromycin. The media used for the assay was: MEM (w/o Phenol Red), +10% FBS, +1× GlutaMAX, +1 mM Sodium-Pyruvate, +100 μM Non-essential amino acids, +0.5% Pen/Strep
Reagents: The reagents used are listed below:
Cell culture: The cells were examined using an inverted microscope to check for health and cell density. To dissociate adherent cells, the monolayer of cells was washed once with pre-warmed PBS. After removing the PBS, 3 ml pre-warmed Accutase® was added to a F75 flask, dispersed evenly and the flask was allowed to sit in incubator for ˜4-5 minutes.
When a single cell suspension was obtained, 7 ml of prewarmed growth media was added and resuspended with the cells. The cell suspension was transferred to a sterile 15 ml conical centrifuge tube, and spun for 5 min at 300×g, RT. The supernatant was discarded and the pellet was resuspended in 10 ml of pre-warmed growth media.
The total cell count was determined, and 20 μl of the desired cell number was added to each well of a 384 well plate using a Multidrop Combi. The plates were then incubated for 24 hours at 37° C., 95% rH, and 5% CO2.
Compound treatment: 24 hours after seeding, the cells were treated with compounds.
A 1:333 dilution of compounds, diluted in DMSO, was made to get a final concentration of 0.3% DMSO per well. To transfer the compounds to the assay plate, 120 nl was shot from Labcyte low dead volume plates to the cell plates containing 20 μl media/well with the ECHO 555 liquid handling system.
After treatment, the cells were fed with 20 μl fresh pre-warmed assay media using a Multidrop combi.
The assay plates were then incubated for another 24 h at 37° C., 95% rH, and 5% CO2.
Luciferase readout: 24 h after treatment, the plates were taken out of the incubator and were allowed to equilibrate to RT. 30 μl of NanoGlo® reagent was added to the plates in the dark. Plates were shaken for 20 min on a Teleshake (˜1500 rpm) in the dark. The luminescence was then measured using an EnVision microplate reader. The IC50 values were generated using Genedata Screener®.
`CC(CCc1ccccn1)NC(=O)c1ccc2c(c1)c1cn(C)nc1n2-c1ccc(C(F)(F)F)cc1` (stereo not shown) [Example B79, 2-methyl-N-[4-(pyridin-2-yl)butan-2-yl]-8-[4-(trifluoromethyl)phenyl]-2H,8H-pyrazolo[3,4-b]indole-5-carboxamide] had an IC50 of 0.1 to 10 µM.
`CCCc1nc(C)c(CNC(=O)c2ccc3c(c2)c2cn(C)nc2n3-c2ccc(C(F)(F)F)cc2)o1` [B124^] had an IC50 of 0.01 to 0.1 µM.
As for `Cn1cc2c3cc(C(=O)N[C@@H]4C[C@H](O)c5ccccc54)ccc3n(-c3ccc(C(F)(F)F)cc3)c2n1` (relative stereo) [Example B1, N-[(1R,3S)-3-hydroxy-2,3-dihydro-1H-inden-1-yl]-2-methyl-8-[4-(trifluoromethyl)phenyl]-2H,8H-pyrazolo[3,4-b]indole-5-carboxamide], the figure is 0.1 to 10 µM; as for `Cn1cc2c3cc(C(=O)N4CCC(O)(c5c[nH]nn5)C4)ccc3n(-c3ccc(C(F)(F)F)cc3)c2n1` (stereo not shown) [Example B74, 1-(2-methyl-8-[4-(trifluoromethyl)phenyl]-2H,8H-pyrazolo[3,4-b]indole-5-carbonyl}-3-(1H-1,2,3-triazol-4-yl)pyrrolidin-3-ol], 0.1 to 10 µM.
Under `Cn1cc2c3cc(C(=O)NC(c4cccnc4)C4CC4)ccc3n(-c3ccc(C(F)(F)F)cc3)c2n1` (stereo not shown) [Example B55, N-[cyclopropyl(pyridin-3-yl)methyl]-2-methyl-8-[4-(trifluoromethyl)phenyl]-2H,8H-pyrazolo[3,4-b]indole-5-carboxamide] stands 0.01 to 0.1 µM.
As for `Cn1cc2c3cc(C(=O)N[C@H]4c5ccccc5C[C@@H]4O)ccc3n(-c3ccc(C(F)(F)F)cc3)c2n1` (single isomer, unassigned) [Example B2], the figure is 0.1 to 10 µM; as for `Cn1cc2c3cc(C(=O)NCC4=CCOCC4)ccc3n(-c3ccc(C(F)(F)F)cc3)c2n1` [Example B58, N-[(3,6-dihydro-2H-pyran-4-yl)methyl]-2-methyl-8-[4-(trifluoromethyl)phenyl]-2H,8H-pyrazolo[3,4-b]indole-5-carboxamide], 0.001 to 0.01 µM; as for `Cn1cc2c3cc(C(=O)N4CCC45CCCOCC5)ccc3n(-c3ccc(C(F)(F)F)cc3)c2n1` (stereo not shown) [B108^], greater than 10 µM.
`Cn1cc2c3cc(C(=O)NC4C5CCOC5C4(C)C)ccc3n(-c3ccc(C(F)(F)F)cc3)c2n1` (stereo not shown) [Example B87, N-(7,7-dimethyl-2-oxabicyclo[3.2.0]heptan-6-yl}-2-methyl-8-[4-(trifluoromethyl)phenyl]-2H,8H-pyrazolo[3,4-b]indole-5-carboxamide]: the concentration for half-maximal inhibition (IC50) fell in the range of 0.1 to 10 µM.
Under `Cn1cc2c3cc(C(=O)NCCCc4cc[nH]n4)ccc3n(-c3ccc(C(F)(F)F)cc3)c2n1` [B142^] stands 0.1 to 10 µM; under `Cn1cc2c3cc(C(=O)N[C@@H]4[C@H](O)[C@@H]5CCC[C@@H]54)ccc3n(-c3ccc(C(F)(F)F)cc3)c2n1` (relative stereo) [Example B43, N-[(1R,5S,6S,7R)-7-hydroxy-bicyclo[3.2.0]heptan-6-yl]-2-methyl-8-[4-(trifluoromethyl)phenyl]-2H,8H-pyrazolo[3,4-b]indole-5-carboxamide], 0.1 to 10 µM.
`Cn1cc2c3cc(C(=O)NC4(C5CCCO5)CCC4)ccc3n(-c3ccc(C(F)(F)F)cc3)c2n1` (stereo not shown) [Example B81, 2-methyl-N-[1-(oxolan-2-yl)cyclobutyl]-8-[4-(trifluoromethyl)phenyl]-2H,8H-pyrazolo[3,4-b]indole-5-carboxamide] registered an IC50 of 0.1 to 10 µM.
With `Cn1cc2c3cc(C(=O)NC[C@H]4C[C@H](n5cncn5)C4)ccc3n(-c3ccc(C(F)(F)F)cc3)c2n1` [B140^], the half-maximal inhibitory concentration (IC50) is greater than 10 µM.
Under `CCn1cnnc1CNC(=O)c1ccc2c(c1)c1cn(C)nc1n2-c1ccc(C(F)(F)F)cc1` [B129^] stands 0.1 to 10 µM.
For `Cn1cc2c3cc(C(=O)NC4CCCc5c4cnn5C)ccc3n(-c3ccc(C(F)(F)F)cc3)c2n1` (stereo not shown) [Example B37, 2-methyl-N-(1-methyl-4,5,6,7-tetrahydro-1H-indazol-4-yl)-8-[4-(trifluoromethyl)phenyl]-2H,8H-pyrazolo[3,4-b]indole-5-carboxamide], the IC50 lay in the range of 0.1 to 10 µM.
Under `Cn1cc2c3cc(C(=O)O)ccc3n(Cc3cccc(C(F)(F)F)c3)c2n1` [Example 8, 2-Methyl-8-{[3-(trifluoromethyl)phenyl]methyl}-2H,8H-pyrazolo[3,4-b]indole-5-carboxylic acid] stands 0.1 to 10 µM; under `Cn1cc2c3cc(C(=O)N4[C@H](CO)C[C@@H]5CCCC[C@@H]54)ccc3n(-c3ccc(C(F)(F)F)cc3)c2n1` (single isomer, unassigned) [Example B32], 0.1 to 10 µM.
As for `COc1cc(CN(C)C(=O)c2ccc3c(c2)c2cn(C)nc2n3-c2ccc(C(F)(F)F)cc2)sn1` [B136^], the figure is greater than 10 µM; as for `Cn1cc2c3cc(C(=O)NCc4conc4C4CCC4)ccc3n(-c3ccc(C(F)(F)F)cc3)c2n1` [Example B63, N-[(3-cyclobutyl-1,2-oxazol-4-yl)methyl]-2-methyl-8-[4-(trifluoromethyl)phenyl]-2H,8H-pyrazolo[3,4-b]indole-5-carboxamide], 0.1 to 10 µM; as for `Cn1cc2c3cc(C(=O)N[C@@H]4C[C@H](O)[C@H]4n4cccn4)ccc3n(-c3ccc(C(F)(F)F)cc3)c2n1` (relative stereo) [Example B26, N-[(1R,2S,3S)-3-hydroxy-2-(1H-pyrazol-1-yl)cyclobutyl]-2-methyl-8-[4-(trifluoromethyl)phenyl]-2H,8H-pyrazolo[3,4-b]indole-5-carboxamide], 0.1 to 10 µM.
Compound `COc1cc(C(C)NC(=O)c2ccc3c(c2)c2cn(C)nc2n3-c2ccc(C(F)(F)F)cc2)sn1` (stereo not shown) [Example B83, N-[1-(3-methoxy-1,2-thiazol-5-yl)ethyl]-2-methyl-8-[4-(trifluoromethyl)phenyl]-2H,8H-pyrazolo[3,4-b]indole-5-carboxamide] yielded an IC50 of 0.1 to 10 µM.
On to `Cn1cc2c3cc(C(=O)NC4CCCn5nccc54)ccc3n(-c3ccc(C(F)(F)F)cc3)c2n1` (stereo not shown) [Example B76, 2-methyl-N-(4H,5H,6H,7H-pyrazolo[1,5-a]pyridin-4-yl}-8-[4-(trifluoromethyl)phenyl]-2H,8H-pyrazolo[3,4-b]indole-5-carboxamide], for which the 50% inhibitory concentration (IC50) was 0.01 to 0.1 µM.
Under `Cn1cc2c3cc(C(=O)NCCc4noc(C5CC5)n4)ccc3n(-c3ccc(C(F)(F)F)cc3)c2n1` [B125^] stands 0.1 to 10 µM.
As for `Cn1cc2c3cc(C(=O)NC(c4ncon4)C4CC4)ccc3n(-c3ccc(C(F)(F)F)cc3)c2n1` (stereo not shown) [Example B31, N-[cyclopropyl(1,2,4-oxadiazol-3-yl)methyl]-2-methyl-8-[4-(trifluoromethyl)phenyl]-2H,8H-pyrazolo[3,4-b]indole-5-carboxamide], the figure is 0.01 to 0.1 µM; as for `Cn1cc2c3cc(C(=O)NCCn4cnnc4C4CC4)ccc3n(-c3ccc(C(F)(F)F)cc3)c2n1` [Example B98, N-[2-(3-cyclopropyl-4H-1,2,4-triazol-4-yl)ethyl]-2-methyl-8-[4-(trifluoromethyl)phenyl]-2H,8H-pyrazolo[3,4-b]indole-5-carboxamide], 0.1 to 10 µM; as for `Cn1cc2c3cc(C(=O)N4CC(O)(c5ccsc5)C4)ccc3n(-c3ccc(C(F)(F)F)cc3)c2n1` [B135^], 0.1 to 10 µM.
Turning to `Cn1cc2c3cc(C(=O)N4CC(O)(Cc5ccn[nH]5)C4)ccc3n(-c3ccc(C(F)(F)F)cc3)c2n1` [Example B47, 1-{2-methyl-8-[4-(trifluoromethyl)-phenyl]-2H,8H-pyrazolo[3,4-b]indole-5-carbonyl}-3-[(1H-pyrazol-5-yl)methyl]azetidin-3-ol], the IC50 is 0.1 to 10 µM.
`Cn1cc2c3cc(C(=O)O)ccc3n(-c3ccc(Cl)cc3)c2n1` [Example 13, 8-(4-chlorophenyl)-2-methyl-2H,8H-pyrazolo[3,4-b]indole-5-carboxylic acid]: the 50% inhibitory concentration (IC50) lay within 0.1 to 10 µM.
Turning to `Cn1cc2c3cc(C(=O)N[C@@H]4C[C@@H]5OCCC[C@@H]54)ccc3n(-c3ccc(C(F)(F)F)cc3)c2n1` [B114^], the 50% inhibitory concentration (IC50) is greater than 10 µM.
Under `Cc1[nH]ncc1CCCNC(=O)c1ccc2c(c1)c1cn(C)nc1n2-c1ccc(C(F)(F)F)cc1` [B132^] stands 0.1 to 10 µM; under `Cn1cc2c3cc(C(=O)NCCc4nc(C5CC5)n[nH]4)ccc3n(-c3ccc(C(F)(F)F)cc3)c2n1` [Example B28, N-[2-(3-cyclopropyl-1H-1,2,4-triazol-5-yl)ethyl]-2-methyl-8-[4-(trifluoro-methyl)phenyl]-2H,8H-pyrazolo[3,4-b]indole-5-carboxamide], 0.1 to 10 µM.

(Values after patent US20230174538A1, “Tricyclic heterocycles” (Merck Patent GmbH, priority 2020, published 2023).)
